According to patent US20170173114A1, “METHODS AND COMPOSITIONS FOR INDUCTION OF UCP1 EXPRESSION” (Joslin Diabetes Center, Inc., priority 2014, published 2017):
“Also recorded” adds a separate entry of the source.

How the values were obtained:
Sirt2 = molecular target: T1, Sirt2 (Mus musculus, UniProt Q923E4); assay: EX 527 effect on FGF6-induced UCP1 and PTGS2 expression in WT-1 preadipocytes; assay type: cell-based, murine; settings: 50 uM pretreatment 3 hours, then EX and FGF6 18 hours
T1 construct: endogenous in cells; host or cells: WT-1 murine brown preadipocytes
T1 sequence (Q923E4 2-737 limits assumed): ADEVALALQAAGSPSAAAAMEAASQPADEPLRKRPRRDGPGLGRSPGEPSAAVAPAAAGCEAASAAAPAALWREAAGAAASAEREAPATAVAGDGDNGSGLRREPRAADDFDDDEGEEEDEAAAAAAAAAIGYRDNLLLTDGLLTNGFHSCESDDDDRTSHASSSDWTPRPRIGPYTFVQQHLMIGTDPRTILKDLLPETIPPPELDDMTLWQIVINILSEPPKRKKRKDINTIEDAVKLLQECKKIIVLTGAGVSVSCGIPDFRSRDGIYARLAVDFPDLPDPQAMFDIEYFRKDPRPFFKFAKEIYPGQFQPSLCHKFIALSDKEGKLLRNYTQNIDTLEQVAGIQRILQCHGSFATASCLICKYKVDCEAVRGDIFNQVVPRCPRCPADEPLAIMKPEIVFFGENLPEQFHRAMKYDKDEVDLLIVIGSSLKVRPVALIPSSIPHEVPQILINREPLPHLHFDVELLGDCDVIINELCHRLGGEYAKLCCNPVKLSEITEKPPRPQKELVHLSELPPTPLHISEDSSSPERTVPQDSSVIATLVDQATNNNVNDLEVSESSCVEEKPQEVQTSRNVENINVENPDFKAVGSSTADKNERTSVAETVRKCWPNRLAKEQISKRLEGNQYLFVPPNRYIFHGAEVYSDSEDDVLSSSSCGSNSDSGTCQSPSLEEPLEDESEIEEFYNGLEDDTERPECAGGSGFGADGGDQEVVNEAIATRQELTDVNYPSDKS
Protocol: (§1) To determine if the […] pathway is utilized by FGF6 to regulate UCP1 expression and mitochondrial function, WT-1 preadipocytes were pretreated with the […] selective inhibitor EX (EX 527; Santa Cruz Biotechnology) at concentrations of 0 uM or 50 uM in growth media (DMEM+10% FBS) for 3 hours. Following EX treatment, the cells were treated with EX and FGF6 for 18 hours.

[1] = molecular target: T2, (Mus musculus, UniProt Q923E4); assay: as above; assay type: cell-based, murine; settings: 50 uM pretreatment 3 hours, then EX and FGF6 18 hours
T2 construct: endogenous in cells; host or cells: WT-1 murine brown preadipocytes
T2 sequence (Q923E4 2-737 limits assumed): T1 sequence (Q923E4 2-737 limits assumed)
Protocol: as §1

NC(=O)C1CCCc2c1[nH]c1ccc(Cl)cc21 (centres unmarked) [EX]
FGF6-induced UCP1 mRNA expression (Sirt2): inhibited UCP1 expression; also recorded: suppression
FGF6-induced PTGS2 expression level [1]: reduced; also recorded: suppression
